# Data reported in patent US20150051283A1, “COMPOSITION AND METHOD FOR INHIBITION OF PKNG FROM MYCOBACTERIUM TUBERCULOSIS” (priority 2013, published 2015).
# What was measured:
# [1] = molecular target: PknGΔ74/TPR (Mycobacterium tuberculosis, UniProt P9WI73); format: biochemical
# [2] = molecular target: T1, rabbit muscle GAPDH (Oryctolagus cuniculus, UniProt P46406); test: Reversibility of GAPDH inhibition by DTT (positive control); format: biochemical; conditions: OA-NO2-inhibited GAPDH
# T1 construct: rabbit muscle GAPDH as model protein; from tissue; host or cells: rabbit muscle
# T1 sequence (P46406 whole entry): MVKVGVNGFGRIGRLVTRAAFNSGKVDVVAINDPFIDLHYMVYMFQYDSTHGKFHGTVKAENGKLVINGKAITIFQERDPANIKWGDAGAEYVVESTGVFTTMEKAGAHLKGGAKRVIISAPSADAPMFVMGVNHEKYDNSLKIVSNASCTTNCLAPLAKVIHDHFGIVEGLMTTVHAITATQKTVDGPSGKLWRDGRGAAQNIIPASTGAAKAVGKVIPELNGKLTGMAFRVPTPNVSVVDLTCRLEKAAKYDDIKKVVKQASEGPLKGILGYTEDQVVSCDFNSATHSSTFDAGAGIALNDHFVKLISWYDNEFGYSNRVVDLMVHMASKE
# Method: FIG. 11A: PknG was inhibited by incubation with OA-NO2 (50 μM) in 70 mM ammonium bicarbonate, pH 8.0 at 25° C. for 10 min, as previously. Kinase activity of PknG inhibited by OA-NO2 was measured (PknG+OA-NO2). Subsequently, nitroalkylated samples were treated with DTT (42 mM) or GSH (24 mM) for 15 min at 25° C. and kinase activity was re-measured (PknG+OA-NO2+RSH). Activity recovery was expressed as a ratio between [activity of PknG+OA-NO2+RSH]/[activity PknG+OA-NO2] where 1 means no activity recovery after thiol-containing agent treatment. GAPDH was used as a positive control: after DTT treatment 90% of the initial activity was recovered representing a 12 fold increase in the enzyme activity after the RSH treatment. […] Three independent experiments were performed FIG. 11B: MALDI-TOF mass spectrum of peptides generated by tryptic digestion of PknG. Upper panel: untreated PknG, middle panel: PknG exposed to OA-NO2 and lower panel: idem middle panel+42 mM DTT. In each panel the native or nitroalkylated form of the peptide with the sequence 122-154 that includes the Rbx-Cys 128 and 131, are shown. […]
# We have previously reported that nitrated fatty acids are capable to inhibit GAPDH activity by modification of nucleophilic amino acid residues in a thiol-reversible manner. […] PknG control activity was measured in the presence of the thiol-containing reagents. […]
# [3] = molecular target: Xanthine oxidoreductase (XOR) (Homo sapiens, UniProt P47989); conditions: reference [15]; cited from earlier work
# Sequence of Xanthine oxidoreductase (XOR) (P47989 whole entry): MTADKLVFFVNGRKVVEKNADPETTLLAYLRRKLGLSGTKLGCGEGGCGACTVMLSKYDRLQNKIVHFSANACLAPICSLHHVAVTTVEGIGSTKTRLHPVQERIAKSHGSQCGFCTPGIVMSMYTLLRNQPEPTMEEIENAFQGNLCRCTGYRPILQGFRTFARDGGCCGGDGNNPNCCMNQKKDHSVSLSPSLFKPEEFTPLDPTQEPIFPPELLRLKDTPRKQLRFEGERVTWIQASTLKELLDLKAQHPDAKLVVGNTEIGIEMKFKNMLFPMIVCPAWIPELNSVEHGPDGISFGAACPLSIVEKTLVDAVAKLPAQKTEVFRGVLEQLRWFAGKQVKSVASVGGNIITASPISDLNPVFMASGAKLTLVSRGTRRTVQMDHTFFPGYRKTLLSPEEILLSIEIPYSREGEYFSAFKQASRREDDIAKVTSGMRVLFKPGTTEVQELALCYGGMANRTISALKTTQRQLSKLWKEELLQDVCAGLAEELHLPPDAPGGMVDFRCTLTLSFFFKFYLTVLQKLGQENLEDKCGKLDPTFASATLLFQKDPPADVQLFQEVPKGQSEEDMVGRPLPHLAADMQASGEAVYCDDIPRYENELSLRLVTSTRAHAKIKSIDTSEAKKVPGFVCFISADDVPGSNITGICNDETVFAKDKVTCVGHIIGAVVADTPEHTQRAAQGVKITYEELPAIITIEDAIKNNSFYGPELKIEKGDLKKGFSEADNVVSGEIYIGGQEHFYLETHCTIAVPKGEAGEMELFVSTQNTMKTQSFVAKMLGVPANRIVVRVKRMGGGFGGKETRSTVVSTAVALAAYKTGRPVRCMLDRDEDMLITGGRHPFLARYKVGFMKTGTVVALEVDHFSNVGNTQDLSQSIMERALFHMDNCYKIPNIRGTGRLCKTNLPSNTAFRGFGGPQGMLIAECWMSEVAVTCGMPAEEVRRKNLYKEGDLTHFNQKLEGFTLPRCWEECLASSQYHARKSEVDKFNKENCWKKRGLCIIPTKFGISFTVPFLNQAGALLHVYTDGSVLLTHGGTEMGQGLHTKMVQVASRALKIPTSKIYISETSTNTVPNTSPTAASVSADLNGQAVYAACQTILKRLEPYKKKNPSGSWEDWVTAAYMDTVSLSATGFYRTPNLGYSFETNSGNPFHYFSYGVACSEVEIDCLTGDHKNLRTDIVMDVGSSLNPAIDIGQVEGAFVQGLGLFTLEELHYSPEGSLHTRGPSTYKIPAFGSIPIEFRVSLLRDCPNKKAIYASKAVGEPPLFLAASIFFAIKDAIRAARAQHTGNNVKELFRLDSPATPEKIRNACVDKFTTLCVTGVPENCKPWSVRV
# Sequence of PknGΔ74/TPR (P9WI73 whole entry, looked up, stated change not applied): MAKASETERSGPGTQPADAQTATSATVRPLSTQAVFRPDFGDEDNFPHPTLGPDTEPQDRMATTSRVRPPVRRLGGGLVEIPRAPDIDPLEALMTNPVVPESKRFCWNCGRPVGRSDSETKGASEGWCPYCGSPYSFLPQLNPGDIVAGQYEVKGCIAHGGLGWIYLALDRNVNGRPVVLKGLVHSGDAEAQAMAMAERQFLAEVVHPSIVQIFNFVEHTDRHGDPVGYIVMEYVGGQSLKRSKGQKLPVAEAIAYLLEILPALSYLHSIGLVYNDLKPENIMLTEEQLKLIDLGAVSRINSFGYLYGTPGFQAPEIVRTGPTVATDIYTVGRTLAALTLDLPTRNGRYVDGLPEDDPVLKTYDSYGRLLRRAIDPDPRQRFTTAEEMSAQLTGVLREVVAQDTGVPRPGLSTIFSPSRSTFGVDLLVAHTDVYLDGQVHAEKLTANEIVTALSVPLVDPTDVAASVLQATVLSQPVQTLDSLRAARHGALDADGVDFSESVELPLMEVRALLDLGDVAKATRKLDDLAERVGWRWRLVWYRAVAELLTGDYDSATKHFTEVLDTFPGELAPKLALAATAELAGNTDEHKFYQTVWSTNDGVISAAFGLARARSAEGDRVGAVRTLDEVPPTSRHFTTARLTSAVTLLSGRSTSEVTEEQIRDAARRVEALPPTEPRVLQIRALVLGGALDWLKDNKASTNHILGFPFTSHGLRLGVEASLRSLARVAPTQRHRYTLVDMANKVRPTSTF
substance,measurement,setting,value
9- and 10-nitro-octadeca-9-cis-enoic acid [OA-NO2],enzyme inhibition of PknGΔ74/TPR,[1],fully inhibited
same,increase in GAPDH activity after RSH treatment,[2],12 fold
same,initial GAPDH activity recovered after DTT treatment,[2],90%
same,"XOR inhibition, reversibility",[3],not reversed by thiol reagents
